Source: ChEMBL document CHEMBL5346870, “Discovery of novel 5-methoxybenzothiophene hydrazides as metabolically stable Clk1 inhibitors with high potency and unprecedented Clk1 isoenzyme selectivity” (Eur J Med Chem, 2023)
pIC50: −log10 of the molar value.

Key:
[1] = target: T1, Dual specificity protein kinase CLK1 (Homo sapiens, UniProt P49759); experiment: Inhibition of human CLK1 using GRSRSRSRSRSRSRS as substrate incubated for 15 mins in presence of ATP by gamma32P-ATP based analysis
Target sequence in this assay (P49759 whole entry): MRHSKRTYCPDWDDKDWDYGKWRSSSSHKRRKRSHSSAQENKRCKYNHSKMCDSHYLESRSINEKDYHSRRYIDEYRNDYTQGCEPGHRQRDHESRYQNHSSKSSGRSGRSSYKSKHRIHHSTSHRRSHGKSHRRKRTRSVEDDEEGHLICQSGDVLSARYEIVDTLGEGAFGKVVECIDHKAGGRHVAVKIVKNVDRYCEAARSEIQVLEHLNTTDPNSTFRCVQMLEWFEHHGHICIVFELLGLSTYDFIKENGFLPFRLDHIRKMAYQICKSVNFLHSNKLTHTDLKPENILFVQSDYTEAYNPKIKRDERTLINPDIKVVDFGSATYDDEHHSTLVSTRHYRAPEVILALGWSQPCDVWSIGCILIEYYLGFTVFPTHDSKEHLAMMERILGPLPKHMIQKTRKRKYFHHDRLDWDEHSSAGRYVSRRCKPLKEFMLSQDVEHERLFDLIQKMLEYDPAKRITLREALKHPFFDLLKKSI

T-24 [2] = experiment: Antiproliferative activity against human T24 cells assessed as cell growth inhibition incubated for 3 days by MTT assay; assay type: functional; details: T-24, 72 h, time 3 day
NHDF = experiment: Cytotoxicity against HDF cells assessed as inhibition of cell growth at 15 uM incubated for 2 days by WST-1 analysis; assay type: toxicity, cell-based; details: human, 48 h, time 2 day
[3] = target: T1, Dual specificity protein kinase CLK1; details: dose 100.0 nM, time 15.0 min
Target sequence in this assay (P49759 whole entry, looked up): as the sequence (P49759 whole entry) above

[4] = Selectivity index, ratio of inhibition of DYRK1A (unknown origin) to inhibition of CLK1 (unknown origin)
[5] = Selectivity index, ratio of IC50 for inhibition of CLK2 (unknown origin) to IC50 for inhibition of CLK1 (unknown origin)
[6] = Metabolic stability in pooled human liver S9 fraction assessed as half life at 0.3 uM incubated for 120 mins in presence of NADPH regenerating system by LC-MS/MS analysis; assay type: ADME, subcellular
[7] = Metabolic stability in human liver microsomes assessed as half life; assay type: ADME, Microsome
[8] = target: Dual specificity protein kinase CLK4 (Homo sapiens, UniProt Q9HAZ1); experiment: Inhibition of CLK4 (unknown origin) in presence of ATP
Chain of Dual specificity protein kinase CLK4 (Q9HAZ1 whole entry): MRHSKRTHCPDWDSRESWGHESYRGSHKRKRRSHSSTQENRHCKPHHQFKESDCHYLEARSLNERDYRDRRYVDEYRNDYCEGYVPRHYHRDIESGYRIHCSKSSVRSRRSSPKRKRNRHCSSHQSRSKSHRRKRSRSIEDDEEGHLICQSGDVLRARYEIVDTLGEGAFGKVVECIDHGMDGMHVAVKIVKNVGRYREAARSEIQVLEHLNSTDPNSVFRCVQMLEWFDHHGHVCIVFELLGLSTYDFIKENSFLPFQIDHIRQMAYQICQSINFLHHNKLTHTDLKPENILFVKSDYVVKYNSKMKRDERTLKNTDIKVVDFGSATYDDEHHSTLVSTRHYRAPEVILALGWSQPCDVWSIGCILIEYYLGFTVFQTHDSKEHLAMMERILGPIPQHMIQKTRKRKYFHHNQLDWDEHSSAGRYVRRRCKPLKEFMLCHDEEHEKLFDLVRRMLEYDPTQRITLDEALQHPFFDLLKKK

[9] = target: Dual specificity tyrosine-phosphorylation-regulated kinase 1A (Homo sapiens, UniProt Q13627); experiment: Inhibition of DYRK1A (unknown origin) in presence of ATP
[10] = Cytotoxicity against HDF cells assessed as cell growth inhibition at 15 uM incubated for 2 days by WST-1 analysis relative to control; assay type: toxicity, cell-based; details: human, HDF cells (NHDF, normal human dermal fibroblasts), time 2 day, read-out: GI
T-24 [11] = experiment: Antiproliferative activity against human T24 cells assessed as cell growth inhibition; assay type: functional

## COc1cccc(NNC(=O)c2cc3cc(OC)ccc3s2)c1
[1]
  pIC50: 8.43
T-24 [2]
  GI50: > 15000 nM
NHDF
  Activity: Non-Toxic
[3]
  inhibition: 86.8%

## COc1ccc2sc(C(=O)NNc3ccc(C(F)(F)F)cc3)cc2c1
[3]
  inhibition: 0%

## COc1ccc2sc(C(=O)N(C)N(C)c3cccc([N+](=O)[O-])c3)cc2c1
[3]
  inhibition: 47.8%

## COc1ccc2sc(C(=O)NNc3cccc(C(F)(F)F)c3)cc2c1
[1]
  pIC50: 7.14
[3]
  inhibition: 63%

## CNc1ncc2cc3cnccc3c([N+](=O)[O-])c2n1
[4]
  Selectivity Index: 34

## COc1ccc2sc(C(=O)NNc3nc(OC)ncc3F)cc2c1
[3]
  inhibition: 0%

## CC(C)(C)c1ccc(C(=O)Nc2cn3cc(-c4cn[nH]c4)ccc3n2)cn1
[5]
  Ratio IC50: 2.2

## COc1ccc2sc(C(=O)NNc3ncccc3Cl)cc2c1
[3]
  inhibition: 0%

## COc1ccc2sc(C(=O)NNc3ccc(F)cc3F)cc2c1
[3]
  inhibition: 4.1%

## COc1ccc2sc(C(=O)N(C)N(C)c3cccc(Br)n3)cc2c1
[1]
  pIC50: 7.89
[3]
  inhibition: 77.2%

## COc1ccc2sc(C(=O)NNc3cc(C(F)(F)F)cc(C(F)(F)F)c3)cc2c1
[3]
  inhibition: 22.3%

## COc1ccc2sc(C(=O)NNc3cccc([N+](=O)[O-])c3)cc2c1
[1]
  pIC50: 7.07
[3]
  inhibition: 68.4%

## COc1ccc2sc(C(=O)NNc3cccc(Br)n3)cc2c1
T-24 [2]
  GI50: 11400 nM

## COc1ccc2sc(C(=O)NNc3ccc(F)cc3)cc2c1
[3]
  inhibition: 5%

## COc1ccc2sc(C(=O)NNc3ccccc3Br)cc2c1
[3]
  inhibition: 6.2%

## COc1ccc2sc(C(=O)NNc3cccc(Br)c3)cc2c1
[1]
  pIC50: 7.42
[3]
  inhibition: 84.6%

## COc1ccc2sc(C(=O)NNc3ccc(C)cc3C)cc2c1
[3]
  inhibition: 0%

## COc1ccc2sc(C(=O)NNc3ccc(Cl)cc3Cl)cc2c1
[3]
  inhibition: 30.4%

## COc1ccc2sc(C(=O)NC(=O)c3cc(Cl)ccc3OC)cc2c1
[4]
  Selectivity Index: 60
[6]
  half-life at 0.3 µM: 10.2 min
[7]
  half-life: 10 min

## Cn1cc(-c2ccc3occ(-c4cccc(-c5ccncc5)c4)c3n2)cn1
[5]
  Ratio IC50: 2.5
[4]
  Selectivity Index: 26.6

## COc1ccc2sc(C(=O)NNc3cc(F)cc(F)c3)cc2c1
[8]
  pIC50: 7.68
[9]
  pIC50: 6.70
T-24 [2]
  GI50: 8900 nM
NHDF
  Activity: Non-Toxic
[6]
  half-life at 0.3 µM: 56.9 min

## COc1ccc2sc(C(=O)N(C)N(C)c3cc(Cl)cc(Cl)c3)cc2c1
[1]
  pIC50: 7.20
[3]
  inhibition: 66.3%

## COc1ccc2sc(C(=O)NNc3cccc(C#N)c3)cc2c1
[1]
  pIC50: 8.27
T-24 [2]
  GI50: 10000 nM
NHDF
  Activity: Non-Toxic
[3]
  inhibition: 73.1%

## COc1ccc2sc(C(=O)NNc3ccc(Br)cc3)cc2c1
[3]
  inhibition: 21.3%

## COc1ccc2sc(C(=O)N(C)N(C)c3cccc(Br)c3)cc2c1
[1]
  pIC50: 7.13
[3]
  inhibition: 68.1%

## COc1ccc2sc(C(=O)NNc3ccc([N+](=O)[O-])cc3)cc2c1
[3]
  inhibition: 7.2%

## COc1ccc2sc(C(=O)NNc3ccc(F)c(Cl)c3)cc2c1
[3]
  inhibition: 27.9%

## COc1ccc2sc(C(=O)NNc3c(Cl)cccc3Cl)cc2c1
[3]
  inhibition: 0%

## COc1ccc2sc(C(=O)NNc3ccccc3Cl)cc2c1
[3]
  inhibition: 29.5%

## COc1ccc2sc(C(=O)NNc3ccc(C#N)cc3)cc2c1
[1]
  pIC50: < 7.00
T-24 [2]
  GI50: > 15000 nM
NHDF
  Activity: Non-Toxic
[3]
  inhibition: 18.4%

## COc1ccc2sc(C(=O)N(C)Cc3cccc(F)c3)cc2c1
[4]
  Selectivity Index: 48.6
[6]
  half-life at 0.3 µM: 17.2 min
[7]
  half-life: 10 min

## COc1ccc2sc(C(=O)NNc3cccc(N)c3)cc2c1
[3]
  inhibition: 49%

## COc1ccc2sc(C(=O)NNc3cccc(F)c3)cc2c1
[1]
  pIC50: 7.18
[3]
  inhibition: 70.5%

## COc1ccc2sc(C(=O)NNc3ccc(C(C)C)cc3)cc2c1
[3]
  inhibition: 3.8%

## COc1ccc2sc(C(=O)N(C)N(C)c3cccc(N)c3)cc2c1
[1]
  pIC50: 7.01
[3]
  inhibition: 51.2%

## COc1ccc2sc(C(=O)NNc3ccccc3F)cc2c1
[3]
  inhibition: 18.6%

## COc1ccc2sc(C(=O)NNc3ccccc3)cc2c1
[3]
  inhibition: 38.1%

## COc1ccc2sc(C(=O)NNc3ccc(C)c(Cl)c3)cc2c1
[3]
  inhibition: 25.9%

## C[C@@H](c1ccc(F)cc1)n1nnc2cnc3ccc(-c4ccc5ocnc5c4)cc3c21
[4]
  Selectivity Index: 69

## COc1ccc2sc(C(=O)N(C)N(C)c3cc(F)cc(F)c3)cc2c1
[1]
  pIC50: 7.61
T-24 [2]
  GI50: > 15000 nM
[10]
  inhibition at 48 h, 15 µM: 20.8%
[3]
  inhibition: 85%

## COc1ccc2sc(C(=O)NNc3ccc(I)cc3)cc2c1
[3]
  inhibition: 16.9%

## COc1ccc2sc(C(=O)N(C)Cc3cc(F)cc(F)c3)cc2c1
T-24 [11]
  GI50: 430 nM
T-24 [2]
  GI50: 1780 nM
[10]
  inhibition at 48 h, 15 µM: 9.16%
[6]
  half-life at 0.3 µM: 9.9 min
[7]
  half-life: 10 min

## COc1ccc2sc(C(=O)N(C)N(C)c3cccc(C#N)c3)cc2c1
[1]
  pIC50: 7.49
[3]
  inhibition: 62.7%

## COc1ccc2sc(C(=O)NNc3cccc(C)c3)cc2c1
[3]
  inhibition: 29.9%

## COc1ccc2sc(C(=O)NNc3ccccn3)cc2c1
[3]
  inhibition: 28.9%

## COc1ccc2sc(C(=O)N(C)Nc3cccc(Cl)c3)cc2c1
T-24 [2]
  GI50: > 15000 nM
NHDF
  Activity: Non-Toxic

## COc1ccc2sc(C(=O)NNc3cc(Cl)cc(Cl)c3)cc2c1
[8]
  pIC50: 7.87
[9]
  pIC50: 6.72
T-24 [2]
  GI50: 3400 nM
[6]
  half-life at 0.3 µM: 385 min

## COc1ccc2sc(C(=O)NNc3ccc(F)c(F)c3)cc2c1
[3]
  inhibition: 17.7%

## COc1ccc2sc(C(=O)NNc3ccc(Cl)cc3)cc2c1
[3]
  inhibition: 12.8%
